Reference: the NIST ThermoML archive (doi:10.1021/je7004402)
Numbers after ± are expanded uncertainties.

Assays:
[1] = Liquid; Ebulliometric method (Recirculating still)
[2] = refractive index (Na D-line) (dimensionless); details: 298.15 K; 101.33 kPa; Liquid; Standard Abbe refractometry

SMILES	Normal boiling temperature [1]	refractive index [2]
C=COC(C)=O [vinyl acetate]	72.80 ± 0.2 °C	1.39236 ± 0.00053
CC(C)c1ccccc1 [isopropylbenzene]	152.29 ± 0.2 °C	1.48829 ± 0.00053
CCOC=O [ethyl methanoate]	54.17 ± 0.2 °C	1.35901 ± 0.00063
